From US8168779B2, “Anhydrous crystalline β-maltose, its preparation and uses” (priority 2006, dated 2012)
Blank lines part the entries; values can stand above or below the molecule they belong to.

Legend:
[1] = Hygroscopicity test (moisture content under controlled relative humidity); assay type: physicochemical; details: 27° C.
Description: Moisture contents of the samples at respective periods were measured based on the change of weight from the start of the test. The moisture contents of the samples at the start of the test were measured by Karl Fischer's method.

[2] = Deionized water-solidifying test (base for solidifying moisture-containing compositions); assay type: physicochemical; details: 25° C.; for (Appearance) / Condition: after 20 hours from the dissolution; for Time of solidification completed / Time of solidification started: monitored for 2 hours
Description: After completing the dissolution, each test solution was further stirred for four minutes and then the stirring was stopped. Successively, each test solution was left to stand and a solidification of the test solution by the crystallization of hydrous crystalline maltose was monitored macroscopically for two hours. In the cases of the solidified samples, the time of starting the crystallization and that of completing the solidification were checked. (However, the test solution dissolving 18.8 g of crystal was stopped stirring at three minutes after the dissolution because the crystallization of hydrous crystalline maltose was started immediately.) After monitoring macroscopically for two hours, each vessel containing any one of the sample solutions was closed and further left to stand for 18 hours. Then, the condition (appearance) of the test samples after 20 hours from the dissolution was monitored macroscopically and evaluated by the following three phases: (1) clear solution; (2) clouded solution; and (3) solidified. The samples prepared by using 10.0 g, 11.5 g, 13.3 g, or 18.8 g of the anhydrous crystalline α-maltose used in Example 2, as a substitute of the test samples, were treated by the same procedure as controls. The test was carried out in a room where a temperature was kept at 25° C. The results of each sample after 2 and 20 hours are shown in Table 5 and FIG. 13, and Table 6 and FIG. 14, respectively.

[3] = mercury filling method; for Intrusion volume: initial pressure 15 kPa; for Median pore diameter / Mode pore diameter: control values originate from space between crystal particles, not pores
[4] = Specific surface area by nitrogen adsorption isotherms (BET); assay type: physicochemical; details: BET method, listed as anhydrous crystalline β-maltose of Control 3
Description: About 3 g of the anhydrous crystalline β-maltose, obtained in Example 1, was dried in the apparatus under a reduced pressure at about 40° C. for about 15 hours as a pretreatment, and then used for the measurement of specific surface area by the nitrogen adsorption isotherms. The result was analyzed by conventional BET (Brunnauer, Emmet, and Teller) method.

[5] = 8.2 g dissolved in 10 g deionized water (45.0%)
[6] = 8.2 g dissolved in 10 g deionized water (calc. conc. 45.0%)
[7] = 10.0 g dissolved in 10 g deionized water (50.0%)
[8] = 10.0 g dissolved in 10 g deionized water (calc. conc. 50.0%)
[9] = 11.5 g dissolved in 10 g deionized water (53.5%)
[10] = 11.5 g dissolved in 10 g deionized water (calc. conc. 53.5%)
[11] = 13.3 g dissolved in 10 g deionized water (calc. conc. 57.0%)
[12] = 18.8 g dissolved in 10 g deionized water (calc. conc. 65.0%)

- Moisture content of samples ([1]; RH 47% (lithium nitrate), 0 hour (start, Karl Fischer)): 5.24 %, w/w
- Moisture content of samples ([1]; RH 47% (lithium nitrate), 2 hours): 5.23 %, w/w
- Moisture content of samples ([1]; RH 47% (lithium nitrate), 4 hours): 5.23 %, w/w
- Moisture content of samples ([1]; RH 47% (lithium nitrate), 24 hours): 5.23 %, w/w
- Moisture content of samples ([1]; RH 47% (lithium nitrate), 96 hours): 5.26 %, w/w
- Moisture content of samples ([1]; RH 47% (lithium nitrate), 192 hours): 5.23 %, w/w
- Moisture content of samples ([1]; RH 58% (sodium bromide), 0 hour (start, Karl Fischer)): 5.24 %, w/w
- Moisture content of samples ([1]; RH 58% (sodium bromide), 2 hours): 5.22 %, w/w
- Moisture content of samples ([1]; RH 58% (sodium bromide), 4 hours): 5.25 %, w/w
- Moisture content of samples ([1]; RH 58% (sodium bromide), 6 hours): 5.26 %, w/w
- Moisture content of samples ([1]; RH 58% (sodium bromide), 8 hours): 5.25 %, w/w
- Moisture content of samples ([1]; RH 58% (sodium bromide), 24 hours): 5.25 %, w/w
- Moisture content of samples ([1]; RH 58% (sodium bromide), 96 hours): 5.28 %, w/w
- Moisture content of samples ([1]; RH 58% (sodium bromide), 192 hours): 5.26 %, w/w
- Moisture content of samples ([1]; RH 75% (sodium chloride), 0 hour (start, Karl Fischer)): 5.24 %, w/w
- Moisture content of samples ([1]; RH 75% (sodium chloride), 2 hours): 5.21 %, w/w
- Moisture content of samples ([1]; RH 75% (sodium chloride), 4 hours): 5.25 %, w/w
- Moisture content of samples ([1]; RH 75% (sodium chloride), 6 hours): 5.25 %, w/w
- Moisture content of samples ([1]; RH 75% (sodium chloride), 8 hours): 5.25 %, w/w
- Moisture content of samples ([1]; RH 75% (sodium chloride), 24 hours): 5.25 %, w/w
- Moisture content of samples ([1]; RH 75% (sodium chloride), 96 hours): 5.29 %, w/w
- Moisture content of samples ([1]; RH 75% (sodium chloride), 192 hours): 5.23 %, w/w
- Moisture content of samples ([1]; RH 90% (barium chloride), 0 hour (start, Karl Fischer)): 5.24 %, w/w
- Moisture content of samples ([1]; RH 90% (barium chloride), 2 hours): 5.26 %, w/w
- Moisture content of samples ([1]; RH 90% (barium chloride), 4 hours): 5.27 %, w/w
- Moisture content of samples ([1]; RH 90% (barium chloride), 6 hours): 5.26 %, w/w
- Moisture content of samples ([1]; RH 90% (barium chloride), 8 hours): 5.26 %, w/w
- Moisture content of samples ([1]; RH 90% (barium chloride), 24 hours): 5.24 %, w/w
- Moisture content of samples ([1]; RH 90% (barium chloride), 96 hours): 5.61 %, w/w
- Moisture content of samples ([1]; RH 90% (barium chloride), 192 hours): 5.36 %, w/w
SMILES: OCC1OC(OC2C(CO)OC(O)C(O)C2O)C(O)C(O)C1O (stereo not drawn) [HC β-Mal (Control 1), Hydrous crystalline β-maltose]

SMILES: OC[C@H]1O[C@H](O[C@H]2[C@H](O)[C@@H](O)[C@H](O)O[C@@H]2CO)[C@H](O)[C@@H](O)[C@@H]1O [Anhydrous crystalline β-maltose converted by the ethanol tre]
- (Appearance) [2, 5]: (Clear solution)
- Condition [2, 5]: Not solidified
- Time of solidification completed [2, 6]: Not solidified
- Time of solidification started [2, 6]: Not solidified
- (Appearance) [2, 7]: (Clear solution)
- Condition [2, 7]: Not solidified
- Time of solidification completed [2, 8]: Not solidified
- Time of solidification started [2, 8]: Not solidified
- (Appearance) [2, 9]: (Clouded solution)
- Condition [2, 9]: Not solidified
- Time of solidification completed [2, 10]: Not solidified
- Time of solidification started [2, 10]: Not solidified
- Condition ([2]; 13.3 g dissolved in 10 g deionized water (57.0%)): Solidified
- Time of solidification completed [2, 11]: 8.0 min
- Time of solidification started [2, 11]: 6.0 min
- Condition ([2]; 18.8 g dissolved in 10 g deionized water (65.0%)): Solidified
- Time of solidification completed [2, 12]: 3.5 min
- Time of solidification started [2, 12]: 3.0 min
- Intrusion volume [3]: 1.05 mL/g
- Median pore diameter [3]: 1.26 μm
- Mode pore diameter [3]: 1.44 μm

SMILES: OC[C@H]1O[C@H](O[C@H]2[C@H](O)[C@@H](O)[C@H](O)O[C@@H]2CO)[C@H](O)[C@@H](O)[C@@H]1O [Anhydrous crystalline β-maltose (Control 3)]
- Intrusion volume [3]: (No pore)
- Median pore diameter [3]: 14.70 μm
- Mode pore diameter [3]: 25.70 μm

SMILES: OC[C@H]1O[C@H](O[C@H]2[C@H](O)[C@@H](O)[C@H](O)O[C@@H]2CO)[C@H](O)[C@@H](O)[C@@H]1O [Anhydrous crystalline β-maltose]
- Moisture content of samples ([1]; RH 47% (lithium nitrate), 0 hour (start, Karl Fischer), listed as AC β-Mal (Control 3)): 0.24 %, w/w
- Moisture content of samples ([1]; RH 47% (lithium nitrate), 2 hours, listed as AC β-Mal (Control 3)): 0.32 %, w/w
- Moisture content of samples ([1]; RH 47% (lithium nitrate), 4 hours, listed as AC β-Mal (Control 3)): 0.47 %, w/w
- Moisture content of samples ([1]; RH 47% (lithium nitrate), 24 hours, listed as AC β-Mal (Control 3)): 0.54 %, w/w
- Moisture content of samples ([1]; RH 47% (lithium nitrate), 96 hours, listed as AC β-Mal (Control 3)): 0.61 %, w/w
- Moisture content of samples ([1]; RH 47% (lithium nitrate), 192 hours, listed as AC β-Mal (Control 3)): 0.47 %, w/w
- Moisture content of samples ([1]; RH 58% (sodium bromide), 0 hour (start, Karl Fischer), listed as AC β-Mal (Control 3)): 0.24 %, w/w
- Moisture content of samples ([1]; RH 58% (sodium bromide), 2 hours, listed as AC β-Mal (Control 3)): 4.68 %, w/w
- Moisture content of samples ([1]; RH 58% (sodium bromide), 4 hours, listed as AC β-Mal (Control 3)): 6.92 %, w/w
- Moisture content of samples ([1]; RH 58% (sodium bromide), 6 hours, listed as AC β-Mal (Control 3)): 6.71 %, w/w
- Moisture content of samples ([1]; RH 58% (sodium bromide), 8 hours, listed as AC β-Mal (Control 3)): 6.28 %, w/w
- Moisture content of samples ([1]; RH 58% (sodium bromide), 24 hours, listed as AC β-Mal (Control 3)): 5.63 %, w/w
- Moisture content of samples ([1]; RH 58% (sodium bromide), 96 hours, listed as AC β-Mal (Control 3)): 5.48 %, w/w
- Moisture content of samples ([1]; RH 58% (sodium bromide), 192 hours, listed as AC β-Mal (Control 3)): 5.42 %, w/w
- Moisture content of samples ([1]; RH 75% (sodium chloride), 0 hour (start, Karl Fischer), listed as AC β-Mal (Control 3)): 0.24 %, w/w
- Moisture content of samples ([1]; RH 75% (sodium chloride), 2 hours, listed as AC β-Mal (Control 3)): 6.86 %, w/w
- Moisture content of samples ([1]; RH 75% (sodium chloride), 4 hours, listed as AC β-Mal (Control 3)): 6.76 %, w/w
- Moisture content of samples ([1]; RH 75% (sodium chloride), 6 hours, listed as AC β-Mal (Control 3)): 6.47 %, w/w
- Moisture content of samples ([1]; RH 75% (sodium chloride), 8 hours, listed as AC β-Mal (Control 3)): 6.34 %, w/w
- Moisture content of samples ([1]; RH 75% (sodium chloride), 24 hours, listed as AC β-Mal (Control 3)): 6.16 %, w/w
- Moisture content of samples ([1]; RH 75% (sodium chloride), 96 hours, listed as AC β-Mal (Control 3)): 6.01 %, w/w
- Moisture content of samples ([1]; RH 75% (sodium chloride), 192 hours, listed as AC β-Mal (Control 3)): 5.93 %, w/w
- Moisture content of samples ([1]; RH 90% (barium chloride), 0 hour (start, Karl Fischer), listed as AC β-Mal (Control 3)): 0.24 %, w/w
- Moisture content of samples ([1]; RH 90% (barium chloride), 2 hours, listed as AC β-Mal (Control 3)): 7.28 %, w/w
- Moisture content of samples ([1]; RH 90% (barium chloride), 4 hours, listed as AC β-Mal (Control 3)): 7.66 %, w/w
- Moisture content of samples ([1]; RH 90% (barium chloride), 6 hours, listed as AC β-Mal (Control 3)): 7.45 %, w/w
- Moisture content of samples ([1]; RH 90% (barium chloride), 8 hours, listed as AC β-Mal (Control 3)): 7.45 %, w/w
- Moisture content of samples ([1]; RH 90% (barium chloride), 24 hours, listed as AC β-Mal (Control 3)): 8.46 %, w/w
- Moisture content of samples ([1]; RH 90% (barium chloride), 96 hours, listed as AC β-Mal (Control 3)): 10.20 %, w/w
- Moisture content of samples ([1]; RH 90% (barium chloride), 192 hours, listed as AC β-Mal (Control 3)): 9.12 %, w/w
- Specific surface area [4]: 0.82 m^2/g
